Reference: ChEMBL document CHEMBL1125841, “Nucleosides and nucleotides. 96. Synthesis and antitumor activity of 5-ethynyl-1-beta-D-ribofuranosylimidazole-4-carboxamide (EICAR) and its derivatives” (J Med Chem, 1991)
≈ marks a conversion by molar mass, not a printed value.

How the values were obtained:
L1210 [1] = experiment: (§1) In vitro inhibitory activity against growth of murine L1210 cells.; type: functional, cell-based; conditions: Mus musculus
HT-1080 = experiment: In vitro inhibitory activity against growth of Human fibrosarcoma (HT1080) cells; type: functional, cell-based
PC-6 = experiment: In vitro inhibitory activity against growth of Human lung small-cell carcinoma (PC-6) cells; type: functional, cell-based
OST = experiment: In vitro inhibitory activity against growth of Human osteosarcoma (OST) cells; type: functional, cell-based
T-24 = experiment: In vitro inhibitory activity against growth of Human bladder transitional-cell carcinoma (T-24) cells; type: functional, cell-based
SW480 = experiment: In vitro inhibitory activity against growth of Human colon adenocarcinoma (SW-480) cells; type: functional, cell-based
PC-13 = experiment: In vitro inhibitory activity against growth of Human large-cell carcinoma (PC-13) cells; type: functional, cell-based
Lu-65 = experiment: In vitro inhibitory activity against growth of Human gaint cell carcinoma (Lu-65) cells; type: functional, cell-based
KB = experiment: In vitro inhibitory activity against growth of Human oral epidermoid carcinoma (KB) cells; type: functional, cell-based
PC-3 = experiment: In vitro inhibitory activity against growth of Human lung adenocarcinoma (PC-3) cells.; type: functional, cell-based
L1210 [2] = experiment: In vitro inhibitory activity against growth of murine L1210 cells at 100 ug/mL concentration; type: functional; conditions: Mus musculus
HOS = experiment: In vitro inhibitory activity against growth of Human osteogenic sarcoma (HOS) cells; type: functional, cell-based
QG-90 = experiment: In vitro inhibitory activity against growth of Human lung small cell carcinoma (QG-90) cells; type: functional, cell-based
KU-2 cell line = experiment: In vitro inhibitory activity against growth of Human renal-cell carcinoma (KU-2) cells; type: functional, cell-based
HT-1376 = experiment: In vitro inhibitory activity against growth of Human bladder carcinoma (HT1376) cells; type: functional, cell-based
Calu-1 = experiment: In vitro inhibitory activity against growth of Human epidermoid carcinoma (Calu-1) cells; type: functional, cell-based
PC-8 = experiment: In vitro inhibitory activity against growth of Human lung adenocarcinoma (PC-8) cells; type: functional, cell-based
G-292 = experiment: In vitro inhibitory activity against growth of Human osteogenic sarcoma (G-292) cells; type: functional, cell-based; conditions: G292
K562 = experiment: In vitro inhibitory activity against growth of Human chronic myelogenous leukemia (K562 cells; type: functional, cell-based
SAOS-2 = experiment: In vitro inhibitory activity against growth of Human osteogenic sarcoma (Saos-2) cells; type: functional, cell-based
U-937 = experiment: In vitro inhibitory activity against growth of Human histocytic lymphoma (U937) cells; type: functional, cell-based
PANC-1 = experiment: In vitro inhibitory activity against growth of Human pancreas epitheloid carcinoma (PANC-1) cells; type: functional, cell-based
CCRF-CEM = experiment: In vitro inhibitory activity against growth of Human acute lymphocytic leukemia (CCRF-CEM) cells; type: functional, cell-based
COLO 205 = experiment: In vitro inhibitory activity against growth of Human colon adenocarcinoma (COLO 205) cells.; type: functional, cell-based
QG-56 = experiment: In vitro inhibitory activity against growth of Human lung squamous-cell carcinoma (QG-56) cells; type: functional, cell-based
RPMI-8226 = experiment: In vitro inhibitory activity against growth of Human myeloma (RPMI 8226) cells; type: functional, cell-based
HL-60 = experiment: In vitro inhibitory activity against growth of Human promyelocytic leukemia (HL-60) cells; type: functional, cell-based
L1210 [3] = experiment: as §1; type: functional, Mus musculus

C#Cc1c(C#N)ncn1C1O[C@H](CO)[C@@H](O)[C@H]1O (some centres not stated)
IC50 (L1210 [1]): 1.9 µg/mL (≈ 7.62 µM)

NC(=O)c1ncn(C2O[C@H](CO)[C@@H](O)[C@H]2O)c1C#CCCO (some centres not stated)
IC50 (HT-1080): > 100 µg/mL | IC50 (PC-6): 12 µg/mL (≈ 38.5 µM) | IC50 (OST): 51 µg/mL (≈ 164 µM) | IC50 (T-24): 15 µg/mL (≈ 48.2 µM) | IC50 (SW480): 6.2 µg/mL (≈ 19.9 µM) | IC50 (PC-13): 26 µg/mL (≈ 83.5 µM) | IC50 (Lu-65): 15 µg/mL (≈ 48.2 µM) | IC50 (KB): 9.5 µg/mL (≈ 30.5 µM) | IC50 (L1210 [1]): 1.28 µg/mL (≈ 4.11 µM) | IC50 (PC-3): > 100 µg/mL

CCCC#Cc1c(C#N)ncn1C1O[C@H](CO)[C@@H](O)[C@H]1O (some centres not stated)
IC50 (L1210 [1]): 14.8 µg/mL (≈ 50.8 µM)

N#Cc1ncn(C2O[C@H](CO)[C@@H](O)[C@H]2O)c1C#CCCO (some centres not stated)
IC50 (L1210 [1]): 3.3 µg/mL (≈ 11.3 µM)

CC(C)(O)C#Cc1c(C(N)=O)ncn1C1O[C@H](CO)[C@@H](O)[C@H]1O (some centres not stated)
IC50 (L1210 [1]): 4.8 µg/mL (≈ 14.8 µM)

NC(=O)c1ncn(C2O[C@H](CO)[C@@H](O)[C@H]2O)c1C#CCC1CCCC1 (some centres not stated)
inhibition at 100 µg/mL (L1210 [2]): -10.7%

NC(=O)c1ncn(C2O[C@H](CO)[C@@H](O)[C@H]2O)c1C#CCO (some centres not stated)
IC50 (OST): > 100 µg/mL | IC50 (T-24): 8.8 µg/mL (≈ 29.6 µM) | IC50 (SW480): 3.8 µg/mL (≈ 12.8 µM) | IC50 (PC-13): 44 µg/mL (≈ 148 µM) | IC50 (Lu-65): 54 µg/mL (≈ 182 µM) | IC50 (KB): 7.5 µg/mL (≈ 25.2 µM) | IC50 (L1210 [1]): 0.7 µg/mL (≈ 2.35 µM) | IC50 (PC-3): 54 µg/mL (≈ 182 µM)

NC(=O)c1ncn(C2O[C@H](CO)[C@@H](O)[C@H]2O)c1C#CC1CCCCC1 (some centres not stated)
inhibition at 100 µg/mL (L1210 [2]): 18.9%

N#Cc1ncn(C2O[C@H](CO)[C@@H](O)[C@H]2O)c1C#Cc1ccccc1 (some centres not stated)
IC50 (L1210 [1]): 80.3 µg/mL (≈ 247 µM)

NC(=O)c1ncn([C@@H]2O[C@H](CO)[C@@H](O)[C@H]2O)c1O [MIZORIBINE]
IC50 (HT-1080): > 100 µg/mL | IC50 (PC-6): 49 µg/mL (≈ 189 µM) | IC50 (OST): > 100 µg/mL | IC50 (T-24): > 100 µg/mL | IC50 (SW480): 42 µg/mL (≈ 162 µM) | IC50 (PC-13): > 100 µg/mL | IC50 (Lu-65): > 100 µg/mL | IC50 (KB): > 100 µg/mL | IC50 (PC-3): > 100 µg/mL

N#Cc1ncn(C2O[C@H](CO)[C@@H](O)[C@H]2O)c1C#CCO (some centres not stated)
IC50 (L1210 [1]): 4.1 µg/mL (≈ 14.7 µM)

C#Cc1c(C(N)=O)ncn1[C@@H]1O[C@H](CO)[C@@H](O)[C@H]1O
IC50 (HOS): 0.28 µg/mL (≈ 1.05 µM) | IC50 (QG-90): 0.23 µg/mL (≈ 0.861 µM) | IC50 (KU-2 cell line): < 0.1 µg/mL | IC50 (HT-1376): 0.14 µg/mL (≈ 0.524 µM) | IC50 (HT-1080): 3 µg/mL (≈ 11.2 µM) | IC50 (PC-6): 0.46 µg/mL (≈ 1.72 µM) | IC50 (Calu-1): 0.21 µg/mL (≈ 0.786 µM) | IC50 (PC-8): 0.54 µg/mL (≈ 2.02 µM) | IC50 (G-292): 2.55 µg/mL (≈ 9.54 µM) | IC50 (OST): 28 µg/mL (≈ 105 µM) | IC50 (T-24): 0.88 µg/mL (≈ 3.29 µM) | IC50 (SW480): 3.3 µg/mL (≈ 12.3 µM) | IC50 (K562): 0.17 µg/mL (≈ 0.636 µM) | IC50 (PC-13): 86 µg/mL (≈ 322 µM) | IC50 (SAOS-2): 4.23 µg/mL (≈ 15.8 µM) | IC50 (U-937): 0.11 µg/mL (≈ 0.412 µM) | IC50 (PANC-1): 0.16 µg/mL (≈ 0.599 µM) | IC50 (Lu-65): 3.8 µg/mL (≈ 14.2 µM) | IC50 (CCRF-CEM): 1.03 µg/mL (≈ 3.85 µM) | IC50 (COLO 205): 0.11 µg/mL (≈ 0.412 µM) | IC50 (QG-56): 0.18 µg/mL (≈ 0.674 µM) | IC50 (RPMI-8226): 0.44 µg/mL (≈ 1.65 µM) | IC50 (HL-60): 0.23 µg/mL (≈ 0.861 µM) | IC50 (KB): 12 µg/mL (≈ 44.9 µM) | IC50 (L1210 [1]): 0.18 µg/mL (≈ 0.674 µM) | IC50 (PC-3): 96 µg/mL (≈ 359 µM)

C=Cc1c(C(N)=O)ncn1C1O[C@H](CO)[C@@H](O)[C@H]1O (some centres not stated)
inhibition at 100 µg/mL (L1210 [2]): 0.4%

NC(=O)c1ncn(C2O[C@H](CO)[C@@H](O)[C@H]2O)c1C#Cc1ccccc1 (some centres not stated)
IC50 (L1210 [1]): 20.6 µg/mL (≈ 60 µM)

N#CCCCC#Cc1c(C(N)=O)ncn1C1O[C@H](CO)[C@@H](O)[C@H]1O (some centres not stated)
Inhibition (L1210 [3]): 3.6%

CCCCC#Cc1c(C(N)=O)ncn1C1O[C@H](CO)[C@@H](O)[C@H]1O (some centres not stated)
IC50 (L1210 [1]): 2.29 µg/mL (≈ 7.08 µM)

NC(=O)c1ncn(C2O[C@H](CO)[C@@H](O)[C@H]2O)c1C#CCCc1ccccc1 (some centres not stated)
inhibition at 100 µg/mL (L1210 [2]): 8.5%

O=c1[nH]cc(F)c(=O)[nH]1 [FLUOROURACIL]
IC50 (HOS): 0.79 µg/mL (≈ 6.07 µM) | IC50 (QG-90): 0.22 µg/mL (≈ 1.69 µM) | IC50 (KU-2 cell line): 0.28 µg/mL (≈ 2.15 µM) | IC50 (HT-1376): 0.58 µg/mL (≈ 4.46 µM) | IC50 (Calu-1): > 3.3 µg/mL | IC50 (PC-8): 0.42 µg/mL (≈ 3.23 µM) | IC50 (G-292): > 3.3 µg/mL | IC50 (K562): 2.2 µg/mL (≈ 16.9 µM) | IC50 (SAOS-2): 0.78 µg/mL (≈ 6 µM) | IC50 (U-937): 0.11 µg/mL (≈ 0.846 µM) | IC50 (PANC-1): 0.22 µg/mL (≈ 1.69 µM) | IC50 (CCRF-CEM): 2.1 µg/mL (≈ 16.1 µM) | IC50 (COLO 205): 0.1 µg/mL (≈ 0.769 µM) | IC50 (QG-56): 0.18 µg/mL (≈ 1.38 µM) | IC50 (RPMI-8226): 0.07 µg/mL (≈ 0.538 µM) | IC50 (HL-60): 1.33 µg/mL (≈ 10.2 µM)
